From ChEMBL document CHEMBL1201862, “PubChem BioAssay data set” (2004)
Where a name gives a salt, the structure may show the parent alone. Activity calls are given as the source filed them.

Experiments:
CAAX prenyl protease 2 = target: T1, CAAX prenyl protease 2 (Saccharomyces cerevisiae S288c, UniProt Q03530); format: biochemical
T1 sequence (Q03530 whole entry): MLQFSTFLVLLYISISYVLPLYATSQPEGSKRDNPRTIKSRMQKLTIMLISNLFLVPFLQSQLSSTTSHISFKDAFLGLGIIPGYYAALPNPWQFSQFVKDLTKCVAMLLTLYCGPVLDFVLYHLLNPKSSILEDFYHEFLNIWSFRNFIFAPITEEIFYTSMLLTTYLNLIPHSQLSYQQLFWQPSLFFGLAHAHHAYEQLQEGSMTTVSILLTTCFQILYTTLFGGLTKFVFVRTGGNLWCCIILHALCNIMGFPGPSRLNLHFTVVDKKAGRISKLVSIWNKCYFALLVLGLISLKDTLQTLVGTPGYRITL

CAAX prenyl protease 1 = CAAX prenyl protease 1 (Saccharomyces cerevisiae S288c, UniProt P47154); assay: Ste24 protease inhibitors, dose response, biochemical, S. cerevisiae, plate reader, cherry-pick (AID 488815)
[1] = inhibitors of Trypanosoma cruzi host-cell infection, confirmation, beta-gal luminescence, NIH3T3 host cells (AID 2630); format: functional, cell-based; details: Mus musculus
Cytochrome P450 2C19 = Cytochrome P450 2C19 (Homo sapiens, UniProt P33261); assay: Cytochrome panel assay with activity outcomes. Panel member name: p450-cyp2c19 Compounds with AC50 equal or less than 10 uM are considered active; format: functional; details: read-out: AC50
Cytochrome P450 1A2 = target: T2, Cytochrome P450 1A2 (Homo sapiens, UniProt P05177);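 also: PubChem cytochrome P450 panel assay, CYP1A2 panel member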
T2 sequence (P05177 whole entry): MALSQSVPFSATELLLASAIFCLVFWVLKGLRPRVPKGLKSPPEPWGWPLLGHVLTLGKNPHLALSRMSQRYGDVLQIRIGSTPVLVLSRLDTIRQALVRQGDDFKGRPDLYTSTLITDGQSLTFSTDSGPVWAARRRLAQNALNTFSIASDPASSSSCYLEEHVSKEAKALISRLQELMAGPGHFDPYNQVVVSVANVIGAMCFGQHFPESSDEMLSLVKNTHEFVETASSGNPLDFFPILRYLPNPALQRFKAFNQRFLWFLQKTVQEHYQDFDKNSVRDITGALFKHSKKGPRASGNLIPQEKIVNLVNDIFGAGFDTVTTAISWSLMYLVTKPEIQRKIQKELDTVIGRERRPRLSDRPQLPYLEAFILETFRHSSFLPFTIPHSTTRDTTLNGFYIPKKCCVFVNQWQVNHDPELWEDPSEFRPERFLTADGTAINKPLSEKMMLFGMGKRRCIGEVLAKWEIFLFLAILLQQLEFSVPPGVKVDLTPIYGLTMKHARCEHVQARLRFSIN

Cytochrome P450 3A4 = Cytochrome P450 3A4 (Homo sapiens, UniProt P08684);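 also: CYP3A4 tested as one member of a cytochrome P450 panel screen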
Cytochrome P450 2C9 = Cytochrome P450 2C9 (Homo sapiens, UniProt P11712)
[2] = HEp-2 cell cytotoxicity, dose response, cytotoxicity control for RSV inhibitor project, HTS (AID 2410); format: functional; details: human respiratory syncytial virus
[3] = growth suppression of PTEN-null colon cells, dose response, cell-based, HCT116 PTEN knockout (AID 1047); format: functional;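 also: HCT116 colon tumor cells with PTEN knocked out; cells exposed to compound for 60 hours before readout; potency for loss of cell viability measured by luminescence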
[4] = growth suppression of beta-catenin-knockout colon cells, dose response, cell-based, HCT116, human colon tumor (AID 1045); format: functional;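 also: HCT116 colon tumor cells with beta catenin knocked out; cells exposed to compound for 60 hours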
[5] = THP-1 cell cytotoxicity, dose response, cytotoxicity control for non-replicating M. tuberculosis project (AID 489025); format: functional
[6] = Vero E6 cell cytotoxicity, dose response, cytotoxicity control for non-replicating M. tuberculosis project, secondary assay (AID 492998); format: functional, VeroE6; details: Vero C1008
[7] = cytotoxicity in HEK-293T cells, dose response, cytotoxicity control for BCR NF-kB inhibitor project, luminescence, B-cell screen hits (AID 489021); format: functional, cell-based;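 also: HEK-293T cells carrying an NF-kB luciferase reporter; cells exposed to compound for about 14 hours before viability readout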
HEK293 [8] = assay: cells; details: Homo sapiens
HEK293 [9] = assay: cells; details: Homo sapiens; remark: listed apart in the source
Jurkat = assay: antigen receptor-induced NF-kB inhibitors, dose response, Jurkat, luciferase reporter, luminescence, B- and T-cell (AID 489004); format: functional, cell-based; details: Homo sapiens;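 also: NF-kB luciferase reporter Jurkat cells stimulated with PMA plus ionomycin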
[10] = cytotoxicity in HEK-293T NF-kB-Luc cells, dose response, cytotoxicity control for B/T-cell NF-kB inhibitor project, cell-based, uHTS hits (AID 489019); format: functional;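 also: IC50 reflects cytotoxicity as loss of cell viability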
[11] = target: T3, Microphthalmia-associated transcription factor (Homo sapiens, UniProt O75030); assay: TRPM1 promoter luciferase signal decrease, dose response, MITF inhibitor project, cell-based, SK-MEL-5, cherry-picked, set 3 (AID 493073); format: functional
T3 sequence (O75030 whole entry): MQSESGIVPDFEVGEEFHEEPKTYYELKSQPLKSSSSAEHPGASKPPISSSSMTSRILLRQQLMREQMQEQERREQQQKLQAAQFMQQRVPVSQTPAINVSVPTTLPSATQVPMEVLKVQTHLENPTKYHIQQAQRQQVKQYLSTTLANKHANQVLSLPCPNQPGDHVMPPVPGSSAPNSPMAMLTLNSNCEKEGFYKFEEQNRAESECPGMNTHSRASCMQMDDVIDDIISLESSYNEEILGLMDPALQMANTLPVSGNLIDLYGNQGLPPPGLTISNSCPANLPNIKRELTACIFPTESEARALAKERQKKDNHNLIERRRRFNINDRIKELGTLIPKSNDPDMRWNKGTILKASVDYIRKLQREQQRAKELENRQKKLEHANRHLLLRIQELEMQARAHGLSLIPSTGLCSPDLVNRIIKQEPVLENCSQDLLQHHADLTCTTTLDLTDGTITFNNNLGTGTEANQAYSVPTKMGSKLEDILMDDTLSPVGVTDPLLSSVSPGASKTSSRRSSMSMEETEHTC

[12] = target: Dual specificity tyrosine-phosphorylation-regulated kinase 1A (Rattus norvegicus, UniProt Q63470); format: biochemical, Homo sapiens
[13] = inhibitors of HIV Env-driven cell fusion, dose response, cherry-pick (AID 652057); format: functional, cell-based
[14] = ZM109 Env clade C HIV-1 fusion inhibitors, dose response, HeLa effector, CEM target cells, luciferase, cherry-pick (AID 652058); format: functional, cell-based
[15] = off-target signal loss in HeLa-CEM21 co-culture – HeLa F-luc CTL cells, cherry-picked, counter-screen for HIV-1 Env fusion inhibitor project, dose response (AID 652040); format: functional, cell-based;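 also: potency for signal decrease marking cytotoxic or nonspecific inhibition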
[16] = inhibitors of clade B AD8 Env fusion, dose response, cell-based, cherry-pick (AID 652062); format: functional;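 also: luciferase signal from cell-cell fusion driven by HIV-1 clade B AD8 Env; potency is for inhibitors of fusion seen as a drop in luminescence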
[17] = MC4R antagonists, dose response, counter-screen for LGR2 antagonist project, cell-based, plate reader, cherry pick (AID 743444); format: functional;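 also: transfected HEK 293 cells stimulated with alpha-MSH peptide; potency of inhibitors of the alpha-MSH evoked signal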
Mu-type opioid receptor [18] = target: T4, Mu-type opioid receptor (Homo sapiens, UniProt P35372); assay: SAR Analysis of Antagonists of the MOR Receptor using an Image-Based Assay - Set 2. [Related pubchem assays (depositor defined):AID1777, AID1785, AID1786, AID1966, AID2133, AID2136, AID2284, AID2285, AID2420]; format: functional
[19] = target: T5, Kappa-type opioid receptor (Homo sapiens, UniProt P41145); assay: SAR analysis of Antagonists of the Kappa Opioid Receptor (KOR) using an Image-Based Assay - Set 2. [Related pubchem assays (depositor defined):AID1777, AID1785, AID1786, AID1966, AID2133, AID2136, AID2284, AID2285, AID2348]; format: functional
Mu-type opioid receptor [20] = target: T4, Mu-type opioid receptor; assay: SAR Analysis of Agonists of the MOR Receptor using an Image-Based Assay - Set 2. [Related pubchem assays (depositor defined):AID1777, AID1785, AID1786, AID1966, AID2133, AID2136, AID2284, AID2285, AID2352]; format: functional
[21] = target: T5, Kappa-type opioid receptor; assay: SAR analysis of small molecule agonists of the kappa opioid receptor via a luminescent beta-arrestin assay - Set 2. [Related pubchem assays (depositor defined):AID1777, AID1785, AID1786, AID1966, AID2133, AID2136, AID2284, AID449737]; format: functional
[22] = target: T6, Delta-type opioid receptor (Homo sapiens, UniProt P41143); assay: SAR Analysis of Agonists of the DOR Receptor using an Image-Based Assay - Set 2. [Related pubchem assays (depositor defined):AID1777, AID1785, AID1786, AID1966, AID2133, AID2136, AID2284, AID2285, AID2370]; format: functional
[23] = target: T6, Delta-type opioid receptor; assay: SAR Analysis of Antagonists of the DOR Receptor using an Image-Based Assay - Set 2. [Related pubchem assays (depositor defined):AID1777, AID1785, AID1786, AID1966, AID2133, AID2136, AID2284, AID2285, AID2357]; format: functional
[24] = target: T5, Kappa-type opioid receptor; assay: SAR analysis of Agonists of the Kappa Opioid Receptor (KOR) using an Image-Based Assay - Set 2. [Related pubchem assays (depositor defined):AID1777, AID1786, AID1966, AID2133, AID2136, AID2284, AID2285, AID2359]; format: functional
[25] = target: Glucose-6-phosphate 1-dehydrogenase (Homo sapiens, UniProt P11413); assay: human G6PD enzyme inhibitors, dose response, selectivity assay for P. falciparum G6PD inhibitor project, biochemical, fluorescence (AID 504792); format: functional
[26] = target: Voltage-gated inwardly rectifying potassium channel KCNH2 (Homo sapiens, UniProt Q12809); details: Potency;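 also: confirmatory quantitative high-throughput screen measuring inhibition of hERG channel activity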
Sequence of Voltage-gated inwardly rectifying potassium channel KCNH2 (Q12809 whole entry): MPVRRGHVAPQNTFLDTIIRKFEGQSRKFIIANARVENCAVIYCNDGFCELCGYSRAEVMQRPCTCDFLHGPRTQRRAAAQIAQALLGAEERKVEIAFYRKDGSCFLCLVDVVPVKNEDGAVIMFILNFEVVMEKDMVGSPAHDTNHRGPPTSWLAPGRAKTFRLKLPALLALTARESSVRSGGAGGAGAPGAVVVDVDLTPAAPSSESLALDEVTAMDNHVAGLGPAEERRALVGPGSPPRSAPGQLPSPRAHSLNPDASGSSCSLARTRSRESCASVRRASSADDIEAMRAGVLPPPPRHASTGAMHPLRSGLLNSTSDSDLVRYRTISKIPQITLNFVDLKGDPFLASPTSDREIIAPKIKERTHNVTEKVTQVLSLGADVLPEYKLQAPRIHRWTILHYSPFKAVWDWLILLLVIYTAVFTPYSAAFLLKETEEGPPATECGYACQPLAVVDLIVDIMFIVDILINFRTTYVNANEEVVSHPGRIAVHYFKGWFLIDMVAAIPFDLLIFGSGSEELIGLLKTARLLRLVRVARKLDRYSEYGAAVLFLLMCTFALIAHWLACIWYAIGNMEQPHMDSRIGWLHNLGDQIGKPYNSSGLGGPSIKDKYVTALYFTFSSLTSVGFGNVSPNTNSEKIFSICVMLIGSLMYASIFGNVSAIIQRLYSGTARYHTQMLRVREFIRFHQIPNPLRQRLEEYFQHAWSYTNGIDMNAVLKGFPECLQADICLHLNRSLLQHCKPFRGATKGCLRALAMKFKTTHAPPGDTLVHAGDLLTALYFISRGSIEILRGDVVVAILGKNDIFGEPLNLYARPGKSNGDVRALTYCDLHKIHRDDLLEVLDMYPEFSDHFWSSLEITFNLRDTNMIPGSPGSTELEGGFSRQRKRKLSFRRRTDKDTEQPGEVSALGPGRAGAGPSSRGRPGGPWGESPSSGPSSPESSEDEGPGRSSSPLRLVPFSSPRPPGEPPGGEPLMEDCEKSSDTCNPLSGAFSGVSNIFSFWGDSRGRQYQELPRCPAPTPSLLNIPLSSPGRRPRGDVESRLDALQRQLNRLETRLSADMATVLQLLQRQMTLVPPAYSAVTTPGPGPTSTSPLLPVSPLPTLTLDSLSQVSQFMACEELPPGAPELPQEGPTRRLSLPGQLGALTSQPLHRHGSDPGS

T5 sequence (P41145 whole entry): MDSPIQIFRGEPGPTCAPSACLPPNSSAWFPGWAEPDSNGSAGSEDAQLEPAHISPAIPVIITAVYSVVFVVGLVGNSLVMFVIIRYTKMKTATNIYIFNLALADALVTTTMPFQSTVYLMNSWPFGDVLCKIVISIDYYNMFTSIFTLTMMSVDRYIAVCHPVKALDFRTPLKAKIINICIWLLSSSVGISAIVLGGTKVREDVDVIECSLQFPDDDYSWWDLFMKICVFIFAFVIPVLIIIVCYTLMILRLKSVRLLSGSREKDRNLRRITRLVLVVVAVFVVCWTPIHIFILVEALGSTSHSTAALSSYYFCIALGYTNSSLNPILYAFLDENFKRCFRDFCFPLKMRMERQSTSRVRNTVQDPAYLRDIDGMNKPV
Sequence of Glucose-6-phosphate 1-dehydrogenase (P11413 whole entry): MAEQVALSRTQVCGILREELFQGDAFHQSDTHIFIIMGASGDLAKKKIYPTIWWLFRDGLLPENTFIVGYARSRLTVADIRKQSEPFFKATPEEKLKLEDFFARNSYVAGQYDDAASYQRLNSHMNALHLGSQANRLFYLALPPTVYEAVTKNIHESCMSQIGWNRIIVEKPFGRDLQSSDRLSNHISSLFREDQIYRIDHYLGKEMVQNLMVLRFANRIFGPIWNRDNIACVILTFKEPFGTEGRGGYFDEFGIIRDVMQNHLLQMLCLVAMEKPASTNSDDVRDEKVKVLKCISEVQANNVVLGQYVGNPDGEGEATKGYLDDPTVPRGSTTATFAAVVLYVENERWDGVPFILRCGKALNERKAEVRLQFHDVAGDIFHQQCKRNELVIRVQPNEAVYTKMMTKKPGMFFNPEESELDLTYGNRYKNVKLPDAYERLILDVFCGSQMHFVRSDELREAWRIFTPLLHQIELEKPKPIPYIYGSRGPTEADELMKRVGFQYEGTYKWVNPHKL
T4 sequence (P35372 whole entry): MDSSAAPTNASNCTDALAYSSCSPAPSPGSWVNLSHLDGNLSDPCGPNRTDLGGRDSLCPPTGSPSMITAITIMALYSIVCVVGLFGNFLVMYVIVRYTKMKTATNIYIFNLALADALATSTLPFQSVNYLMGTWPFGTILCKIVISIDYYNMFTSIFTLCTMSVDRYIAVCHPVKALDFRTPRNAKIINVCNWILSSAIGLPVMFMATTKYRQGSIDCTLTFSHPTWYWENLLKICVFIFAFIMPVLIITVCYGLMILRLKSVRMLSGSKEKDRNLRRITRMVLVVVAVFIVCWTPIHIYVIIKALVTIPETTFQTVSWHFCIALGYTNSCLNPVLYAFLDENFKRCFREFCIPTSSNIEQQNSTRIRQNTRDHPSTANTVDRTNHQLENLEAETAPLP
Sequence of CAAX prenyl protease 1 (P47154 whole entry): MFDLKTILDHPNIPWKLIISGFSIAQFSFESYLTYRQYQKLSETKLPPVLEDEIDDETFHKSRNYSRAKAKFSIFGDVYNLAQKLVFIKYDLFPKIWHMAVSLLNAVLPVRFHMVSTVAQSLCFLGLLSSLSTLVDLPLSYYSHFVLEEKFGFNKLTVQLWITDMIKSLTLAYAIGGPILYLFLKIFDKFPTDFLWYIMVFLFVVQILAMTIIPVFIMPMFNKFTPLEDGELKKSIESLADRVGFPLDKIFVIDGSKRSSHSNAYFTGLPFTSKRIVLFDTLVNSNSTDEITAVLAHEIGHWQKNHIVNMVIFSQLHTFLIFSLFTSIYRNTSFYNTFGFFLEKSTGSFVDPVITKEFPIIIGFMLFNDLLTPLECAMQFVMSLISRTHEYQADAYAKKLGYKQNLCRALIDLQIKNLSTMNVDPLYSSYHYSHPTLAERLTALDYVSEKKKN
T6 sequence (P41143 whole entry): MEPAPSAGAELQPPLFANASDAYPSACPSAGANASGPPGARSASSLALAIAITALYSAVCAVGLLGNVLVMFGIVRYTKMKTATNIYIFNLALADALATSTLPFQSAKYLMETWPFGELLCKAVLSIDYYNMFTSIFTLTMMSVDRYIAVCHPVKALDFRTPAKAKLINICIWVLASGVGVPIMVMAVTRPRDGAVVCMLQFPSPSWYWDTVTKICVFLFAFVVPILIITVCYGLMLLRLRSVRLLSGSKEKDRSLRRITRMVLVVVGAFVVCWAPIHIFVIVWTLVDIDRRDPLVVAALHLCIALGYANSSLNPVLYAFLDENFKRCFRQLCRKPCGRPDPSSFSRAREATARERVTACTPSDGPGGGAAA
Sequence of Cytochrome P450 3A4 (P08684 whole entry): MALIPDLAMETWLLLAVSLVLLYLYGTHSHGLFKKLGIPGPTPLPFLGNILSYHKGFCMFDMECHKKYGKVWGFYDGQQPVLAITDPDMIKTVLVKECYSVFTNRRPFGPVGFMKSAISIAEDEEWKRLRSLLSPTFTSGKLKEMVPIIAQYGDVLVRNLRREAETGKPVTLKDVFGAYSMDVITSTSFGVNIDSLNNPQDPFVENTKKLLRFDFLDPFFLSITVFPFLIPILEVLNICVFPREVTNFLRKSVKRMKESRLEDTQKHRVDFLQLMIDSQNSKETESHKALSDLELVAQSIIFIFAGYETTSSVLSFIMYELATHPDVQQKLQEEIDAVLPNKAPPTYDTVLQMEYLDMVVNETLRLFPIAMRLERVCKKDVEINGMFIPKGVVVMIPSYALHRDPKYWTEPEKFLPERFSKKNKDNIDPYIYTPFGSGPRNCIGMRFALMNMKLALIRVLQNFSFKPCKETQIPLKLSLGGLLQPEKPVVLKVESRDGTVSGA
Sequence of Cytochrome P450 2C19 (P33261 whole entry): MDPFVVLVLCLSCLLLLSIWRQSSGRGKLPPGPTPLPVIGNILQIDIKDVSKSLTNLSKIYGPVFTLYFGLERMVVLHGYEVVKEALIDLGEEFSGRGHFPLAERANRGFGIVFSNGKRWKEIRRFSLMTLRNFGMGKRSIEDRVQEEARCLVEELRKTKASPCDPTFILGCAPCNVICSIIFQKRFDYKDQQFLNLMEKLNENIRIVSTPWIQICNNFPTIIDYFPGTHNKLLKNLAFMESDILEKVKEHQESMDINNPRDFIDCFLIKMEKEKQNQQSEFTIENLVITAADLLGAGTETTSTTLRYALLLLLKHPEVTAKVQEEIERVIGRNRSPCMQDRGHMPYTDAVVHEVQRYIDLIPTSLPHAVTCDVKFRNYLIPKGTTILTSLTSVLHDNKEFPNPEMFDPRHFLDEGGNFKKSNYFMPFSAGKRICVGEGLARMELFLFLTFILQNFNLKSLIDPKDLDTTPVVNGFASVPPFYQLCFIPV
Sequence of Cytochrome P450 2C9 (P11712 whole entry): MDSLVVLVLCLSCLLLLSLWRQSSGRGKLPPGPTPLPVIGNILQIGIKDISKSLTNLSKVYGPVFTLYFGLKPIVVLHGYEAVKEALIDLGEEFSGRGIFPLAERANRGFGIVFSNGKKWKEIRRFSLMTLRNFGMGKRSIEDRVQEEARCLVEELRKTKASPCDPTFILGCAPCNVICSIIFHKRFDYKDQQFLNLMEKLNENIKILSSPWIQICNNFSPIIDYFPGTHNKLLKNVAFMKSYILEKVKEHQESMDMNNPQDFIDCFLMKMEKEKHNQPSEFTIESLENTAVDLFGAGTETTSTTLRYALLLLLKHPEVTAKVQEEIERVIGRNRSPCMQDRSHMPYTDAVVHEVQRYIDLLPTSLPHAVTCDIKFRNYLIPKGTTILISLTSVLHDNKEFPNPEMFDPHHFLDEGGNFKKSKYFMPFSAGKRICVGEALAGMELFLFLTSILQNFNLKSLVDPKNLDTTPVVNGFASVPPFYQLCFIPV

With NC(=O)CSC1=Nc2ccccc2C2=NC(c3ccccc3)C(=O)N12 (configuration not stated) the AC50 (CAAX prenyl protease 2) was 4.61 µM (active) and the AC50 (CAAX prenyl protease 1) was 5.41 µM (active).
For Cc1cc(C)n(CC(=O)N2CCCC(C(=O)c3cccc(OC(C)C)c3)C2)n1 (configuration not stated), the EC50 [1] was 14.1 µM (active).
In the case of CCCCC1(C)OC(=O)C(=Cc2ccc(N(C)C)cc2)C(=O)O1 (configuration not stated), the AC50 (Cytochrome P450 2C19) is reported as 28.2 µM (inconclusive), the AC50 (Cytochrome P450 1A2) is reported as 14.1 µM (inconclusive) and the AC50 (Cytochrome P450 3A4) is reported as 1 µM (inconclusive). The AC50 (Cytochrome P450 2C9) was “inconclusive”.
With CC1=CC(C)(C)Nc2ccc(OC(=O)CN3C(=O)c4ccccc4C3=O)cc21 the CC50 [2] was 6.94 µM (active), the EC50 [3] was 9.51 µM (active) and the EC50 [4] was 5.85 µM (active). The CC50 [5] was 6.68 µM (active), the CC50 [6] was 13.6 µM (active) and the IC50 [7] was 58.6 µM (inactive). The EC50 (HEK293 [8]) was > 59.6 µM (inactive) and the EC50 (HEK293 [9]) was > 59.6 µM (inactive).
For Cc1ccc2nc(NC(=O)CCCC(=O)O)sc2c1, the IC50 (Jurkat) was 0.8 µM (active), the IC50 [10] was > 80 µM (inactive) and the AC50 [11] was 12.1 µM (active). For the same compound, the AC50 [12] was 4.63 µM (active), the AC50 [13] was 1.42 µM (active) and the AC50 [14] was 0.62 µM (active). The AC50 [15] was 2.82 µM (active), the AC50 [16] was 1.02 µM (active) and the AC50 [17] was 44.1 µM (active).
In the case of Cc1ccc(CSc2nnc(-c3ccccn3)n2Cc2cccs2)cc1, the IC50 (Mu-type opioid receptor [18]) is reported as > 32 µM (inactive), the IC50 [19] is reported as > 32 µM (inactive) and the EC50 (Mu-type opioid receptor [20]) is reported as > 32 µM (inactive). For the same compound, the EC50 [21] was 3.59 µM (active), the EC50 [22] was > 32 µM (inactive) and the IC50 [23] was > 32 µM (inactive). The EC50 [24] was 2.38 µM (active).
With C[N+]1([C@H](CO)Cc2c[nH]c3ccccc23)Cc2ccccc2C1.O=S(=O)([O-])c1ccccc1 the AC50 (Cytochrome P450 1A2) was “inactive”.
For Cc1[nH]c2ccccc2c1/C=N/NC(=O)c1cccc(S(=O)(=O)Nc2ccccc2Cl)c1, the IC50 [25] was > 80 µM (inactive).
In the case of COc1ccc(NC(C)C(=O)N/N=C/c2cc(Br)ccc2OC)cc1 (configuration not stated), the IC50 [25] is reported as > 80 µM (inactive).
In the case of CC(CCc1ccccc1)NCC(O)c1ccc(O)c(C(N)=O)c1 (configuration not stated) [LABETALOL HYDROCHLORIDE], the AC50 (CAAX prenyl protease 2) is reported as 15.3 µM (active), the AC50 (CAAX prenyl protease 1) is reported as 7.7 µM (active) and the AC50 [26] is reported as 15.8 µM (inconclusive).
